Here are results for one compound from US20250161312A1, “A METHOD FOR THE TREATMENT OF CHEMOTHERAPEUTIC DRUG-INDUCED NEPHROTOXICITY” (INSTITUT NATIONAL DE LA SANTÉ ET DE LA RECHERCHE MÉDICALE, priority 2022, published 2025).

Series [1] deals with H1975 cells. Briefly: Cell efflux (flow cytometry) in H1975 cells. The conditions noted are these: cancer cells in response to cisplatin, data not shown. It is filed as cell-based. As for the experimental part: The basic cell efflux function was assessed using an EFLUXX-ID Green Multidrug Resistance Assay Kit (ENZO Life Sciences). Briefly, 2.5×10^5 cells/condition were collected, washed with PBS, and incubated with the EFLUXX-ID Green Detection Reagent for 30 minutes at 37° C., and then efflux was measured immediately by flow cytometry (CytoFLEX LX, Beckman Coulter). All experiments were performed in triplicate, with the measurement of 10,000 individual cells. Data were analyzed using Kaluza Analysis Software (Beckman Coulter).

Series [2] relates to H1975 cells. Briefly: γH2AX nuclear foci in H1975 cells. The conditions noted are these: 50 μM cisplatin, 10 nM KW6002, 6 hours, FIG. 7F. The series is classed as cell-based. On the procedure: FIG. 7. […] Caspase 3/-7 activity (n=3 independent experiments) (A) and the number of γH2AX nuclear foci (n=36-63 nuclei/group) (B) were determined. […] Results are expressed as the mean±SEM (n=3 independent experiments). (E) Tail moment was assessed by comet assay. A total of 50 cells per condition were analyzed. *** P<0.001; 1-way ANOVA followed by Tukey's post hoc test. […] (I) KW6002 increased yH2AX expression in tumors from mice of the LLC1 syngeneic model. Quantification of nuclear yH2AX expression.

For series [3], the system named is LLC1 tumors in C57BL6/J mice. In words: LLC1 in vivo tumor model (syngeneic, sub-chronic cisplatin). On the procedure: FIG. 1. Schematic representation of the different animal procedures. (A) Acute cisplatin-induced kidney injury. […] (B) Sub-chronic cisplatin-induced kidney injury. […] (C) KW-6002 administration schedule in the acute model. […] (D) KW-6002 administration schedule in the sub-chronic model.
LLC1 cells (Lewis Lung Cancer cells, ATCC® CRL-1642™) were cultured in DMEM with 10% fetal calf serum and penicillin-streptomycin. LLC1 cells ([…]) in PBS: matrigel (1:1, for a total volume of 100 μL) were subcutaneously injected in the right flank of animals. Tumors were measured twice a week with calipers and their volumes were estimated using the following equation: ½ (length×width2).
Prior sacrifice by cervical dislocation, retro-orbital blood samples were collected in heparinized tubes and centrifuged for 10 min at 2000 rpm at room temperature. Renal function was assessed by Blood urea nitrogen (BUN) measurement using a AU480 Chemistry Analyzer (Beckman Coulter). At the time of sacrifice, kidneys or LLC1 tumors were harvested and stored in either “RNA later” solution (Thermo Fisher), 4% neutral buffered formalin or snap-frozen in liquid nitrogen.
Paraffin-embedded sections (3 μm thick) were deparaffinized with xylene and rehydrated in successive ethanol dilutions. Then, antigen retrieval was done by incubation in sub-boiling 10 mM sodium citrate buffer. Tissues were permeabilized in a 0.4% Triton X-100 solution, and nonspecific binding was blocked with a 5% BSA solution in TBS for 2 hours. Sections were then incubated overnight with an anti-γH2AX antibodies (1:50; no. 9718, Cell Signaling Technology). After washing, the secondary antibody (A10042) was incubated for 45 minutes at room temperature. Again, after washing, the nuclei were stained with a 300 nM DAPI solution (D1306, Life Technologies, Thermo Fisher Scientific). The slides were analyzed using a Zeiss LSM 880 confocal microscope. Quantification was performed using ImageJ. For immunofluorescence studies in free-floating sections, mice were deeply anesthetized with pentobarbital sodium (50 mg/kg, i.p.) and then transcardially perfused with cold NaCl (0.9%) and 4% paraformaldehyde in PBS (pH 7.4). Kidneys were removed, post-fixed for 24 hours in 4% paraformaldehyde, and cryoprotected in 30% sucrose before being frozen at −40° C. in isopentane (methyl-butane) and stored at −80° C. Longitudinal kidney sections (40 μm) were obtained using a Leica cryostat. Free-floating sections were stored in PBSazide (0.2%) at 4° C. Longitudinal kidney sections were incubated with a donkey serum (D9663, MilliporeSigma) at 10% in PBS Triton X-100 (0.2%) for 1 hour and then incubated with anti-A2AR primary antibody (1:50; GP-Af1000, Frontiers Institute) for 72 hours at 4° C. in Signal Boost (8114, Cell Signaling Technology). Alexa Fluor 568-conjugated secondary antibodies (1:500; Life Technologies, Thermo Fisher Scientific) were incubated overnight at room temperature. Lectin staining was performed by incubating sections for 1 hour at room temperature with Lotus tetragonolobus FITC conjugate (Vector Laboratories, FL-1321-2) diluted to 2 μg/mL in blocking medium. Sections were counterstained with DAPI (1:5,000; no. 62247, Thermo Fisher Scientific) and mounted on superfrost slides and left to dry. Then, they were covered with Vectashield Vibrance Antifade Mounting Medium (H-1700, Vector Laboratories). Images were acquired using a Zeiss LSM 710 confocal laser-scanning microscope at ×20 magnification. 3D reconstruction of confocal image stacks was performed using Imaris software (Bitplane).
Reverse transcription was performed on 1 μg of RNA using high-capacity cDNA reverse transcription kit (Thermo Fisher), according the manufacturer's recommendation. Real time PCR was performed on a StepOne device using Taqman Gene Expression Master Mix (Thermo Fisher), following manufacturer's recommendations. […]

For another series, the system named is kidney mouse sections. In words: Red Oil staining of kidney mouse sections. It is filed as in vivo. To be noted: Red Oil staining, kidney samples. On the procedure: FIG. 6. KW6002 alleviates the cisplatin-induced nephrotoxicity associated with apoptosis, lipid metabolism, and oxidative stress. (A) Tail moment assessed by comet assay; 50 cells/condition were analyzed. (B and C) KW6002 attenuates cisplatin-induced renal lipid accumulation, assessed by Red Oil staining. […] Results are the mean±SEM (n=6-9 mice/group). (F-H) KW6002 attenuated cisplatin-induced oxidative stress in RPTEC/hTERT1 cells. (F and G) Gene expression of Nrf2 (F) and HO1 (G). […] Results are the mean±SEM (n=3 independent experiments).
10 μm frozen kidney mouse sections were fixed with ethanol (60%) then incubated for 15 min with Oil Red O Solution (Fisher Biotech) dissolved in isopropanol. After several washes with ddH2O, samples were incubated 3 min with hematoxylin. Lipid droplets are stained in red whereas nuclei appeared blue. […] RPTEC/hTERT cells were fixed with ethanol (60%) then incubated for 15 min with Oil Red O Solution. The cells were washed three times with ddH2O and incubated 3 min with hematoxylin. Coverslips were rinsed with H2O before mounting on microscope slides using glycerol gelatin aqueous slide mounting medium (Sigma). Quantifications were performed blindly using ImageJ software. […] The resulting red color images were quantified using a custom threshold (0.173 for RPTEC/hTERT cells and 0.140 for kidney stainings).

Each structure is given as a SMILES string.

Regarding `CCn1c(=O)c2c(nc(/C=C/c3ccc(OC)c(OC)c3)n2C)n(CC)c1=O` [KW-6002, 8-[(E)-2-(3,4-dimethoxyphenyl)vinyl]-1,3-diethyl-7-methyl-3,7-dihydro-1H-purine-2,6-dione], in the series on H1975 cells [1], the efflux entry is given as “significantly reduced”. For the same compound, the “DNA damage: yH2AX nuclear foci” value in the series on H1975 cells [2] is on record as “increased number of H2AX+ cells”. Further, the “cisplatin accumulation (platinum levels) in the kidney” value in series [3] (KW-6002-treated mice, FIG. 4A) is reported as “lowered”. Further, in series [3] (KW-6002-treated mice, FIG. 4B), the “cisplatin accumulation (platinum levels) in the tumors” value was “remained unchanged”. The “anti-tumoral response to cisplatin (tumor size)” value in series [3] (co-treatment with cisplatin, FIG. 3) was “did not compromise the anti-tumoral response to cisplatin”. Moreover, in series [3] (in vivo LLC1 syngeneic model), the “cisplatin-induced DNA damage, H2AX+ cells in tumors” value is “increased number of H2AX+ cells”. Besides, in series [3] (qPCR, FIG. 4A), the “expression of some efflux transporters in kidneys” value was “significantly increased”. For the same compound, in series [3] (qPCR, FIG. 4B), the “transporter expression in tumors” value is “no expression changes”. Moreover, the “ability to protect from cisplatin-induced kidney injury” value in series [3] (tumor-bearing mice) is listed as “preserved”. For the same compound, the “cisplatin-induced accumulation of lipid droplets in kidney” value in the series with kidney mouse sections is recorded as “significantly reduced”.
